Test results from ChEMBL document CHEMBL5550104, “Discovery of 3-hydroxymethyl-azetidine derivatives as potent polymerase theta inhibitors” (Bioorg Med Chem, 2024).

Columns and labels:
[1] = target: T1, DNA polymerase theta (Homo sapiens, UniProt O75417)
[2] = target: T1, DNA polymerase theta; assay: Inhibition of DNA polymerase theta mediated TMEJ repair activity in human HEK293T cells transfected with TMEJ reporter incubated for 24 hrs by Nano-glo luciferase assay; assay type: cell-based
[3] = test system: DLD-1; assay: Antiproliferative activity against BRCA2 deficient human DLD-1 cells assessed as inhibition of cell growth incubated for 7 days by Cell-titer glo luminescence assay; assay type: functional, cell-based; conditions: DLD-1, 168 h
[4] = target: T2, Cytochrome P450 1A2 (Homo sapiens, UniProt P05177); assay: Inhibition of CYP1A2 in human liver microsomes using phenacetin as substrate incubated for 10 mins in presence of NADPH by LC-MS/MS analysis; assay type: ADME, Microsome
T2 sequence (P05177 whole entry): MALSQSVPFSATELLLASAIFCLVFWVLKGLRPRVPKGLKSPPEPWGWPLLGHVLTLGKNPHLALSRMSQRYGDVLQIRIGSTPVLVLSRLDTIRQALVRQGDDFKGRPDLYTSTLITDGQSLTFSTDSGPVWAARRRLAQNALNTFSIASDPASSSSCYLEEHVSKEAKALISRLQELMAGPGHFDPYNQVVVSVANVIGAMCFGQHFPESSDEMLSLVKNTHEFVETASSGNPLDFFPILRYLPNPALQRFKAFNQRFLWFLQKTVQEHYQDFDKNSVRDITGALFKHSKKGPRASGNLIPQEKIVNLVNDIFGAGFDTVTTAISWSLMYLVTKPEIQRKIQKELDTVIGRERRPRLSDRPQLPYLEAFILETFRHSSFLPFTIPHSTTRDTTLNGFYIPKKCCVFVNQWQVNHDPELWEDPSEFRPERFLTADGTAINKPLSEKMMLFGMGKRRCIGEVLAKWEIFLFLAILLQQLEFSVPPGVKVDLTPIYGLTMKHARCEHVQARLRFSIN

[5] = target: Cytochrome P450 2C9 (Homo sapiens, UniProt P11712); assay: Inhibition of CYP2C9 in human liver microsomes using diclofenac as substrate incubated for 10 mins in presence of NADPH by LC-MS/MS analysis; assay type: ADME, Microsome
[6] = target: Cytochrome P450 2C19 (Homo sapiens, UniProt P33261); assay: Inhibition of CYP2C19 in human liver microsomes using S-mephenytoin as substrate incubated for 10 mins in presence of NADPH by LC-MS/MS analysis; assay type: ADME, Microsome
[7] = target: Cytochrome P450 2D6 (Homo sapiens, UniProt P10635); assay: Inhibition of CYP2D6 in human liver microsomes using dextromethorphan as substrate incubated for 10 mins in presence of NADPH by LC-MS/MS analysis; assay type: ADME, Microsome
[8] = target: Cytochrome P450 3A4 (Homo sapiens, UniProt P08684); assay: Inhibition of CYP3A4 in human liver microsomes using midazolam as substrate incubated for 10 mins in presence of NADPH by LC-MS/MS analysis; assay type: ADME, Microsome
Chain of Cytochrome P450 3A4 (P08684 whole entry): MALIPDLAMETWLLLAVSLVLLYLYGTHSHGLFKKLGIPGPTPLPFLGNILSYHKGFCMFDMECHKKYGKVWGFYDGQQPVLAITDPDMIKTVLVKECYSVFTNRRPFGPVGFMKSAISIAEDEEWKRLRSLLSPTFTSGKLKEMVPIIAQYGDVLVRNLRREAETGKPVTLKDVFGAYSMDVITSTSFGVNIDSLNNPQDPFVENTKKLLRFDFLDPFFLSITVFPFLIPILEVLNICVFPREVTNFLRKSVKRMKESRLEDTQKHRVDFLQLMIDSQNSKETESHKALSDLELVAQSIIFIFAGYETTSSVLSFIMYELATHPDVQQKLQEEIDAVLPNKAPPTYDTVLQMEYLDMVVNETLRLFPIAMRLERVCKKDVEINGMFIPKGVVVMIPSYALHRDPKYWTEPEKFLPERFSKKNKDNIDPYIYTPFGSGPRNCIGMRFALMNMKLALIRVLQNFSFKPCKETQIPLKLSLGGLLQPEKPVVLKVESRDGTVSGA

T1 sequence (O75417 whole entry): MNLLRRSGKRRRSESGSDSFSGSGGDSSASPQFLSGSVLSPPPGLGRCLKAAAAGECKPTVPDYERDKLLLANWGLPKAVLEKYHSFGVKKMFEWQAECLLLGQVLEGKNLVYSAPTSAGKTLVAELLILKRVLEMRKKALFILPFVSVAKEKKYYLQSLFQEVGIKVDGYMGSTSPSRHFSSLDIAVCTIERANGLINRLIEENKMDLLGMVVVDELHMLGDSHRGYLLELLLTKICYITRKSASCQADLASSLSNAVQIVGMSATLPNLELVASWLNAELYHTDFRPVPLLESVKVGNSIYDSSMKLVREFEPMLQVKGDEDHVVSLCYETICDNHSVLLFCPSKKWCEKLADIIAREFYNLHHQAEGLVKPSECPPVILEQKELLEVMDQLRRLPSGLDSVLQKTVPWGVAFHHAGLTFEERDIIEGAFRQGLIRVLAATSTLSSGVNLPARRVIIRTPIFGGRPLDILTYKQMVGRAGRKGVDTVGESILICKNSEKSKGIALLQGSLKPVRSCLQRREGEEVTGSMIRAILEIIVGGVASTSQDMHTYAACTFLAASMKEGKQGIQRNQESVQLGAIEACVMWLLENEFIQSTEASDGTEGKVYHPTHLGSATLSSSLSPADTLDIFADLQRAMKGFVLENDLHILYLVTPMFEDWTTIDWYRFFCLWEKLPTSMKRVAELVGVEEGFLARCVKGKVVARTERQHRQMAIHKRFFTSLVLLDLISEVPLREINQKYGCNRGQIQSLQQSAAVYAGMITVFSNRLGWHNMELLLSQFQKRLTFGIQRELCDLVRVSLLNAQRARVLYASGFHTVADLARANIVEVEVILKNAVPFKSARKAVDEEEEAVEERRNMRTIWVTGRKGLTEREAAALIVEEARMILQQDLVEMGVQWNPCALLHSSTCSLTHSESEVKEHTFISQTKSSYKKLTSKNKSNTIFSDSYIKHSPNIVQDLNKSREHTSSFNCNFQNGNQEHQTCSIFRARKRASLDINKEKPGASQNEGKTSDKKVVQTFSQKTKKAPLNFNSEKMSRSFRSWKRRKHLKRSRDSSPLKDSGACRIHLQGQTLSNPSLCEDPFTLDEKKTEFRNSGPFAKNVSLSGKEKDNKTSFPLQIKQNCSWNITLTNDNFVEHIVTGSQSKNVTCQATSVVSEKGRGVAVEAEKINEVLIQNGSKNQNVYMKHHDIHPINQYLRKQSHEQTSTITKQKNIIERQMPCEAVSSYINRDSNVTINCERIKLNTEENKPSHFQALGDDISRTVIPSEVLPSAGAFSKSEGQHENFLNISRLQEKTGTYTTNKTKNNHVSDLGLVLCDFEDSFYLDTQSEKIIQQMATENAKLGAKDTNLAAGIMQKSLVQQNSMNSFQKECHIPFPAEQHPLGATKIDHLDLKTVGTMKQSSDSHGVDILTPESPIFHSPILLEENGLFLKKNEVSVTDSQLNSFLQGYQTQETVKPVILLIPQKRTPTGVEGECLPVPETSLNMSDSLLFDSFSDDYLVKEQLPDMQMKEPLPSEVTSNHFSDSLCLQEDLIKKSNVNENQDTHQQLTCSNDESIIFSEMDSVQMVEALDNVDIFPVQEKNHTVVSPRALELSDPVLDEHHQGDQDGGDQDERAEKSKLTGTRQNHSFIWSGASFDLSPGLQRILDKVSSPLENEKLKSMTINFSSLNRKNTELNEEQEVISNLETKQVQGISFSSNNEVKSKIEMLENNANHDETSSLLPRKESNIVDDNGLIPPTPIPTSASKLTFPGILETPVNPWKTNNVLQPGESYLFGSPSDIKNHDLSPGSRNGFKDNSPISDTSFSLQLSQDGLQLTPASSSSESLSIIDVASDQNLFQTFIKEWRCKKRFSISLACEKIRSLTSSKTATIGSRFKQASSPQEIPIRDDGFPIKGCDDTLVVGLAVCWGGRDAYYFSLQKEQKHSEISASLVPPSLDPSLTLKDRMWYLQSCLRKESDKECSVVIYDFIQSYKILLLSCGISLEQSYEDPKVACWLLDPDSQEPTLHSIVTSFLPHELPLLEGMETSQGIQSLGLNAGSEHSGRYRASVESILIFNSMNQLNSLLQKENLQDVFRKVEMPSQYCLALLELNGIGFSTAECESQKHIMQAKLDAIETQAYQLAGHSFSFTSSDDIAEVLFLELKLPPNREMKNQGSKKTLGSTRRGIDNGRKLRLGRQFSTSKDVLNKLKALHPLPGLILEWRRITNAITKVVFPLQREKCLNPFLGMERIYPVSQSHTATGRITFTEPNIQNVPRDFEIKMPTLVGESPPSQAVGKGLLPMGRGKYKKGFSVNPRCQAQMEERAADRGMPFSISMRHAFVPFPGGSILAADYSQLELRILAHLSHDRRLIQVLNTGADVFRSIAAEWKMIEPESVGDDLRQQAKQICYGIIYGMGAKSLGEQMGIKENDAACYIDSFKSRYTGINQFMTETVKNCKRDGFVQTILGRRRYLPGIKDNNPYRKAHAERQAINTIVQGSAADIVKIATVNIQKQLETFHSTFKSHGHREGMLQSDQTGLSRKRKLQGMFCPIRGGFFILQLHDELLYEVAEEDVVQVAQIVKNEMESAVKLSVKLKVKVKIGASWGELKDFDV
Chain of Cytochrome P450 2C9 (P11712 whole entry): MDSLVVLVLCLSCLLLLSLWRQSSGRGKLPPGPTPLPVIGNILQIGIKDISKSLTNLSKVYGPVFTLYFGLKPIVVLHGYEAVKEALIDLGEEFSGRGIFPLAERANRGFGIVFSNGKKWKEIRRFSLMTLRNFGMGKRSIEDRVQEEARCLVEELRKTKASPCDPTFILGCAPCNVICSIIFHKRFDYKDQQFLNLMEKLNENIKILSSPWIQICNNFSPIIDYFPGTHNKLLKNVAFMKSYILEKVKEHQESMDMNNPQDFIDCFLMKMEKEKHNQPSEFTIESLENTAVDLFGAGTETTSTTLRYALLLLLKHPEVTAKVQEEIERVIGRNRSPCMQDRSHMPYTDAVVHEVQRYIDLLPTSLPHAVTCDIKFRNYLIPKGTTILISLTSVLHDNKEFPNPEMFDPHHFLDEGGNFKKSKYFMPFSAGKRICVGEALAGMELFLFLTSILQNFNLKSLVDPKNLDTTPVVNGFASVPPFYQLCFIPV
Chain of Cytochrome P450 2C19 (P33261 whole entry): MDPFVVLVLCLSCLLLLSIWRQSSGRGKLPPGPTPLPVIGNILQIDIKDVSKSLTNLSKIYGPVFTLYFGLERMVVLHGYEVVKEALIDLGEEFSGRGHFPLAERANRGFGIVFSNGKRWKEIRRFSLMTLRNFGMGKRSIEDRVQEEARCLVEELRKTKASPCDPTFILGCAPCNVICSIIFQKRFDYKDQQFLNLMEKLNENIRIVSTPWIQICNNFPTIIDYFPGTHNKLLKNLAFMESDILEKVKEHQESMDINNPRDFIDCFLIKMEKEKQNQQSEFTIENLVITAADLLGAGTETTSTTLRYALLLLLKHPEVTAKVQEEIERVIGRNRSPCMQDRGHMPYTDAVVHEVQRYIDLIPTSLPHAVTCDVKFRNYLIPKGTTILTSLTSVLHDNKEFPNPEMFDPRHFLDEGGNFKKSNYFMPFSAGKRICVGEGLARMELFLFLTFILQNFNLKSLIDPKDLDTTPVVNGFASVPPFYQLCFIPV
Chain of Cytochrome P450 2D6 (P10635 whole entry): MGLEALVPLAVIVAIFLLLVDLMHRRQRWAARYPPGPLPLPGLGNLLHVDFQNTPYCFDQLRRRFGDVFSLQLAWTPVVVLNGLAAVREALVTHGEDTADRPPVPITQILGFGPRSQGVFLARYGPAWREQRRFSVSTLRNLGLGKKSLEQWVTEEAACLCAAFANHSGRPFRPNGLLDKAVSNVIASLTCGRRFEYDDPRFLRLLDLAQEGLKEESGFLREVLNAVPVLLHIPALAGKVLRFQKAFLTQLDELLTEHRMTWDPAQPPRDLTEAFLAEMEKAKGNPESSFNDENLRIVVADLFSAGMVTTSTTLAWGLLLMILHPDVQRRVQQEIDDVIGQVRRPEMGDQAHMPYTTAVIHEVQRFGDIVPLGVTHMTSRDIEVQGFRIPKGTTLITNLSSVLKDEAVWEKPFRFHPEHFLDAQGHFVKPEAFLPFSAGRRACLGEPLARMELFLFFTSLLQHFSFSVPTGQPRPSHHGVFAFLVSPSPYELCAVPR

| Structure (SMILES) | IC50 [1] | also measured |
| --- | --- | --- |
| Cc1cc(C(F)(F)F)c(C#N)c(N2CC[C@H]2C(=O)N(C)c2ccc(F)c(Cl)c2)n1 | 104 nM |  |
| Cc1cc(C(F)(F)F)cc(N2CC[C@H]2C(=O)N(C)c2ccc(F)c(Cl)c2)n1 | 221 nM |  |
| Cc1cc(C(F)(F)F)cc(N2CCOC[C@H]2C(=O)N(C)c2ccc(F)c(Cl)c2)n1 | 3890 nM |  |
| Cc1cc(C(F)(F)F)c(C#N)c(N2CC[C@@H](O)[C@H]2C(=O)N(C)c2ccc(F)c(Cl)c2)n1 | 7.9 nM | IC50 [2]: 160 nM; IC50 [3]: 5.5 µM |
| Cc1cc(C(F)(F)F)c(C#N)c(N2C[C@@H](CCl)[C@H]2C(=O)N(C)c2ccc(F)c(Cl)c2)n1 | 923 nM |  |
| Cc1cc(C(F)(F)F)cc(N2C(=O)C[C@H]2C(=O)N(C)c2ccc(F)c(Cl)c2)n1 | 41.3 nM |  |
| [2H]C([2H])([2H])N(C(=O)[C@@H]1[C@H](CO)CN1c1nc(C)cc(C(F)(F)F)c1C#N)c1ccc(F)c(Cl)c1 |  | IC50 [4]: > 50 µM; IC50 [5]: 3.1 µM; IC50 [6]: 770 nM; IC50 [7]: 17.3 µM; IC50 [8]: 14.6 µM |
| Cc1cc(C(F)(F)F)c(C#N)c(N2C(=O)C[C@H]2C(=O)N(C)c2ccc(F)c(Cl)c2)n1 | 858 nM |  |
